In ChEMBL document CHEMBL4024722, “Discovery of acylguanidine oseltamivir carboxylate derivatives as potent neuraminidase inhibitors” (Bioorg Med Chem, 2017):

What was measured:
[1] = Inhibition of Influenza A virus (A/Puerto Rico/8/1934(H1N1)) neuraminidase using 4-MU-NANA as substrate preincubated for 10 mins followed by substrate addition measured after 1 hr by fluorescence assay
[2] = Inhibition of Influenza A virus (A/Hong Kong/498/97(H3N2)) neuraminidase using 4-MU-NANA as substrate preincubated for 10 mins followed by substrate addition measured after 1 hr by fluorescence assay
[3] = Cytotoxicity against MDCK cells after 72 hrs by Alamar-Blue assay; format: cell-based, Canis lupus familiaris; conditions: dog

| SMILES | IC50 [1] [nM] | IC50 [2] [nM] | CC50 at 72 h [3] [nM] |
| --- | --- | --- | --- |
| CCC(CC)O[C@@H]1C=C(C(=O)O)C[C@H](NC(=N)NC(=O)Cc2ccc(C)cc2)[C@H]1NC(C)=O | 29.4 | 9.5 |  |
| CCC(CC)O[C@@H]1C=C(C(=O)O)C[C@H](NC(=N)NC(=O)c2cccc(C)c2)[C@H]1NC(C)=O | 11.5 | 19.5 |  |
| CCC(CC)O[C@@H]1C=C(C(=O)O)C[C@H](NC(=N)NC(=O)Cc2ccc(Br)cc2)[C@H]1NC(C)=O | 14.5 | 8 | > 1000 |
| CCCCC(=O)NC(=N)N[C@H]1CC(C(=O)O)=C[C@@H](OC(CC)CC)[C@@H]1NC(C)=O | 37 | 6 |  |
| CCC(CC)O[C@@H]1C=C(C(=O)O)C[C@H](NC(=N)NC(=O)c2ccncc2)[C@H]1NC(C)=O | 15.2 | 16.1 |  |
| CCC(CC)O[C@@H]1C=C(C(=O)O)C[C@H](NC(=N)NC(=O)c2cccc(OC)c2)[C@H]1NC(C)=O | 175 | 533 |  |
| CCC(CC)O[C@@H]1C=C(C(=O)O)C[C@H](NC(=N)NC(=O)c2ccccc2C)[C@H]1NC(C)=O | > 1000 | > 1000 |  |
| CCC(CC)O[C@@H]1C=C(C(=O)O)C[C@H](NC(=N)NC(=O)c2ccc([N+](=O)[O-])cc2)[C@H]1NC(C)=O | 20.1 | 14.2 | > 1000 |
| CCC(CC)O[C@@H]1C=C(C(=O)O)C[C@H](NC(=N)NC(=O)c2cc(C)cc(C)c2)[C@H]1NC(C)=O | 155 | 159 |  |
| CCC(CC)O[C@@H]1C=C(C(=O)O)C[C@H](NC(=N)NC(=O)Cc2ccc3ccccc3c2)[C@H]1NC(C)=O | 21.1 | 7.2 | > 1000 |
| CCC(CC)O[C@@H]1C=C(C(=O)O)C[C@H](NC(=N)NC(=O)CCc2ccccc2)[C@H]1NC(C)=O | 30.1 | 9.4 |  |
| CCC(CC)O[C@@H]1C=C(C(=O)O)C[C@H](NC(=N)NC(=O)c2ccc(OC)cc2)[C@H]1NC(C)=O | 68.6 | 215 |  |
| CCC(CC)O[C@@H]1C=C(C(=O)O)C[C@H](NC(=N)NC(=O)c2ccccc2O)[C@H]1NC(C)=O | 49.8 | 185 |  |
| CCC(CC)O[C@@H]1C=C(C(=O)O)C[C@H](NC(=N)NC(=O)C(C)C)[C@H]1NC(C)=O | 38.2 | 13.7 |  |
| CCC(CC)O[C@@H]1C=C(C(=O)O)C[C@H](NC(=N)NC(=O)CCc2cccnc2)[C@H]1NC(C)=O | 10.2 | 14.6 |  |
| CCC(=O)NC(=N)N[C@H]1CC(C(=O)O)=C[C@@H](OC(CC)CC)[C@@H]1NC(C)=O | 39.1 | 11.4 | > 1000 |
| CCC(CC)O[C@@H]1C=C(C(=O)O)C[C@H](NC(=N)NC(=O)c2cccc(C(F)(F)F)c2)[C@H]1NC(C)=O | 216 | 76.1 |  |
| CCC(CC)O[C@@H]1C=C(C(=O)O)C[C@H](NC(=N)NC(=O)c2ccccc2)[C@H]1NC(C)=O | 574 | 334 |  |
| CCC(CC)O[C@@H]1C=C(C(=O)O)C[C@H](NC(=N)NC(=O)Cc2ccccc2C)[C@H]1NC(C)=O | 86.5 | 22.8 |  |
| CCC(CC)O[C@@H]1C=C(C(=O)O)C[C@H](NC(=N)NC(=O)CCc2ccc(OC)c(OC)c2)[C@H]1NC(C)=O | 1.43 | 3.64 | > 1000 |
| C=CCCC(=O)NC(=N)N[C@H]1CC(C(=O)O)=C[C@@H](OC(CC)CC)[C@@H]1NC(C)=O | 8.1 | 5.4 | > 1000 |
| CCC(CC)O[C@@H]1C=C(C(=O)O)C[C@H](NC(=N)NC(=O)c2ccccc2OC)[C@H]1NC(C)=O | 53.5 | 125 |  |
| CCC(CC)O[C@@H]1C=C(C(=O)O)C[C@H](NC(=N)NC(=O)c2ccccc2C(F)(F)F)[C@H]1NC(C)=O | > 1000 | 911 |  |
| CCC(CC)O[C@@H]1C=C(C(=O)O)C[C@H](NC(=N)NC(=O)c2ccc(C)cc2)[C@H]1NC(C)=O | > 1000 | > 1000 |  |
| CCC(CC)O[C@@H]1C=C(C(=O)O)C[C@H](NC(=N)NC(=O)CC(C)C)[C@H]1NC(C)=O | 88.3 | 18.4 |  |
| CCC(CC)O[C@@H]1C=C(C(=O)O)C[C@H](NC(=N)NC(=O)c2ccccc2Br)[C@H]1NC(C)=O | > 1000 | > 1000 |  |
| CCCC(=O)NC(=N)N[C@H]1CC(C(=O)O)=C[C@@H](OC(CC)CC)[C@@H]1NC(C)=O | 34.8 | 11.2 |  |
| CCC(CC)O[C@@H]1C=C(C(=O)O)C[C@H](NC(=N)NC(=O)CCCc2ccccc2)[C@H]1NC(C)=O | 64.9 | 21.4 |  |
